Consider one molecule from US6479493B1, “Methods for treatment of type I diabetes” (Cell Pathways, Inc., priority 2001, dated 2002).

pIC50: −log10 of the molar value. Structures can show the parent of a compound that is named as a salt.

One series relates to PDE1. The series can be described thus: PDE inhibition, similar protocols. It is filed as biochemical.
Series [1] deals with rats. The experiment in a line: seven-day dose-range finding study in rats. It counts as in vivo, rat. Conditions: 7 days.
For series [2], the system named is rats. The series can be described thus: 91-day long-term safety assessment study in rats. It is filed as in vivo, rat. From the text:
These changes were not associated with any gross clinical abnormality.

For series [3], the system named is rats. The experiment in a line: 28-day study in rats. It is filed as in vivo, rat. On the procedure:
A 28-day study in rats was also carried out at 0, 50, 500 and 2000 mg/kg/day.

For the next series, the system named is human patients. The experiment in a line: single, escalating dose human clinical safety trial. To be noted: humans, oral, 50, 100, 200 and 400 mg BID. It is filed as in vivo. The text has this: One skilled in the art should recognize that any of the side effects observed in these safety studies occurred at very high doses, in excess of recommended human doses and are extremely minimal compared to what one would expect at similar doses of other proposed therapies.

The mark [4] stands for this setting: 28 days, 50, 500 and 2000 mg/kg/day.

The pIC50 is the negative decadic logarithm of the IC50, by convention in mol/L. Low values mean a large IC50, high ones a small IC50. With `CC1=C(CC(=O)NCc2ccccc2)c2cc(F)ccc2/C1=C\c1ccncc1` [Example 38, (Z)-5-Fluoro-2-methyl-(4-pyridylidene)-3-(N-benzyl)indenylacetamide Hydrochloride], the pIC50 with PDE1 was 5.52. Further, the signs of toxicity result in the series with rats [1] (50 mg/kg/day) is listed as “no observable signs of toxicity”. The treatment-related effects entry in the series on rats [1] (500 mg/kg/day) is “limited to an increase in absolute and relative liver weights in female rats”. The treatment-related effects result in the series with rats [1] (2000 mg/kg/day) is “labored breathing and/or abnormal respiratory sounds, decreased weights gains and food consumption in male rats, and increased liver weights in female rats”. For the same molecule, the “hematology, blood chemistry, microscopic pathology” value with rats [1] (any dose level (50, 500, 2000 mg/kg/day)) is listed as “No hematological or blood chemistry changes nor any microscopic pathology changes”. Further, in the series on rats [2] (91 days), the “clinical biochemistry and hematology” value was “no changes in clinical biochemistry and hematology were evident”. The “microscopic finding, follicular cells” value with rats [2] (91 days, 500 mg/kg/day) was “follicular cell hypertrophy”. Also, in the series on rats [2] (91 days, 200 and 500 mg/kg/day), the “microscopic finding, kidneys” value was “increase in accumulation of hyalin droplets in the kidneys” and the “microscopic finding, liver” value is on record as “slight hepatocellular hypertrophy”. Also, the “liver and thyroid/parathyroid weights” value in the series on rats [2] (91 days, males and females at 200 and 500 mg/kg/day) is “dose-related trend to increased liver and thyroid/parathyroid weights”. In the series with rats [2] (oral, 91 days, 50, 200 and 500 mg/kg/day), the toxicological effects overall result is on record as “did not produce any major toxicological effects”. Besides, the “macroscopic tissue changes at necropsy” value with rats [3] (28 days) is recorded as “No macroscopic tissue changes”. For the same molecule, in the series with rats [3] (28 days, 2000 mg/kg/day), the liver weights result is recorded as “statistically significant increase in liver weights” and the thyroid weights entry is listed as “statistically significant increases in thyroid weights”. Moreover, in the series on rats [3] (setting [4]), the “body weight changes, ophthalmoscopic examinations, hematological and blood chemistry values, urinalysis” value is “unremarkable”; the clinical observations entry is reported as “no abnormal clinical observations”. Also, the “histopathological evaluation of tissues” value with rats [3] (28 days, generally a small number of animals at 2000 mg/kg/day) was “traces of follicular cell hypertrophy, increased numbers of mitotic figures (suggestive of possible cell proliferation) in the thyroid gland and mild centrilobular hypertrophy in the liver”. Also, in the series with rats [3] (28 days, lower doses (50, 500 mg/kg/day)), the “liver and thyroid weight increases at the lower doses” value is on record as “not statistically significant”. Besides, the side effects result in the series on human patients is “no significant side effects at any dose”.
